Test results published in patent publication US20120270250A1, “TEST SYSTEM FOR MEASURING MEST ACTIVITY AS WELL AS METHODS AND USES INVOLVING THE SAME” (SANOFI, priority 2009, published 2012).

What was measured:
[1] = tested on: endogenous insect cell glycerol 3-phosphate acyltransferase activities; assay: Glycerol 3-phosphate acyl transferase activity, non-transfected Sf9 crude membranes; type: biochemical, Sf9 insect cells; conditions: 1 mM NEM for 1 h
Description: (§1) The assay for determining glycerol 3-phosphate acyl transferase is based on the following principle:
(§2) Glycerol 3-phosphate acyl transferase activity was determined as incorporation of palmitate with palmitoyl CoA as acyl donor and radio-labeled [^3H] glycerol 3-phosphate as acyl acceptor, to obtain radio-labeled palmitoyl glycerol 3-phosphate. Radioactive-labeled product palmitoyl glycerol 3-phosphate was separated from the radio-labeled substrate by addition of a scintillator based on organic solvent in order to determine radioactivity in a suitable counter. After separation of phases, only radio-label in the organic solvent phase, which is saturated with scintillator, is detected, i.e. hydrophobic and amphiphilic substances as radio-labeled palmitoyl glycerol 3-phosphate. Hydrophilic radio-labeled glycerol phosphate, which has not been acylated, remains in the aqueous phase and is, therefore, not counted by the scintillation counter. The low amount of “cross-irradiation” from the aqueous phase to the organic phase was corrected by substracting a blank value of a control (containing all reaction components apart from MEST protein) for all MEST reactions.
(§3) 10 μl enzyme solution were incubated with 50 μl reaction solution at 25° C. for 60 min. Incubation was carried out in an Eppendorf Thermomixer comfort with gentle agitation (450 min^−1), wherein the openings of the plate were sealed by a protection film (Whatman Uni Seal 7704-0009). The reaction was terminated by addition of 5 μl 200 mM glycerol 3-phosphate and 200 μl scintillation liquid (beta-plate, #1205-440, Perkin Elmer) and incubation under agitation as above at 25° C. for 15 min. After at least 12 hours of incubation at 25° C. without agitation for separation of the phases, radioactivity (in dpm) was measured in a scintillation counter (Wallac 1450 micro beta).
(§4) The enzyme solution (total membranes of Sf9 insect cells) was produced as follows: Sf9 insect cells were pelleted by centrifugation and frozen in aliquots (about 7-9 g). When needed, pelleted Sf9 insect cells were quickly thawed in a 37° C. water bath and kept on ice until further processing. Thereafter, they were transferred into a 50 ml glass homogenizer containing 10 ml homogenization buffer and, additionally, 0.5 mM DTT for preparing a suspension. Cells were homogenized in a teflon-in-glass homogenizer (10×1500/min at 4° C.). The homogenate was transferred into JA25.5 centrifugation tubes (Beckman #363647), diluted with 10 ml homogenization buffer plus DTT and pelleted by centrifugation (500 g, 5 min, 4° C., refrigerated centrifuge Beckman Avanti JA25I). The supernatant was transferred into ultracentrifugation tubes (Beckman #355618) and centrifugated (100000 g, 60 min, 4° C., Beckman Optima LE-80K). The supernatant was completely removed. […]

MEST T579B = molecular target: T1, MEST T579B (Homo sapiens, UniProt Q5EB52); assay: Glycerol 3-phosphate acyl transferase activity, MEST T579B-recombinant Sf9 crude membranes; type: biochemical
T1 construct: T579B=amino acids 2-335 and T580B=amino acids 11-335; made in house; host or cells: Sf9 insect cells (baculovirus, pVL1392); crude total membranes
T1 sequence (Q5EB52 2-335): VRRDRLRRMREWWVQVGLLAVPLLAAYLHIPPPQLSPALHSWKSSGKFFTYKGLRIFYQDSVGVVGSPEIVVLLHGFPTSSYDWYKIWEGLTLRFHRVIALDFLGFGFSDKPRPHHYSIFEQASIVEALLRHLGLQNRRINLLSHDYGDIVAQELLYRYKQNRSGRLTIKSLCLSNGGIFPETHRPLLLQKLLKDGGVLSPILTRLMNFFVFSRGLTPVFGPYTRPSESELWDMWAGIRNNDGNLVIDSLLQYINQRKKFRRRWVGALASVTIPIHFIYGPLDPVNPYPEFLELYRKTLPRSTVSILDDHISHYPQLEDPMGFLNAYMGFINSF
Description: as §1, §2
(§5) Membranes of insect cells expressing human recombinant MEST protein (as below) in homogenization buffer adjusted to the desired concentration (determination of protein content by BioRad assay)
as §3
The enzyme solution (total membranes of Sf9 insect cells) was produced as follows: Sf9 insect cells were pelleted by centrifugation and frozen in aliquots (about 7-9 g). When needed, pelleted Sf9 insect cells were quickly thawed in a 37° C. water bath and kept on ice until further processing. Thereafter, they were transferred into a 50 ml glass homogenizer containing 10 ml homogenization buffer and, additionally, 0.5 mM DTT for preparing a suspension. Cells were homogenized in a teflon-in-glass homogenizer (10×1500/min at 4° C.). The homogenate was transferred into JA25.5 centrifugation tubes (Beckman #363647), diluted with 10 ml homogenization buffer plus DTT and pelleted by centrifugation (500 g, 5 min, 4° C., refrigerated centrifuge Beckman Avanti JA25I). The supernatant was transferred into ultracentrifugation tubes (Beckman #355618) and centrifugated (100000 g, 60 min, 4° C., Beckman Optima LE-80K). The supernatant was completely removed. The pellet was two times carefully washed with homogenization buffer and then resuspended in homogenization buffer. Enzyme solution was aliquoted, frozen in liquid nitrogen and stored at −80° C.
The experiment was carried out as detailed above. Particularly, crude membranes from insect cells (SF9) transfected to express MEST (T579B) were produced and assayed for glycerol 3-phosphate acyltransferase activity (dpm/test) in the presence of A003564556 or S987600. […]
The experiment was carried out as detailed above. Particularly, crude membranes of non-transfected insect cells (SF9) or insect cells (SF9) transfected to express either MEST (T579B) or GPAT (GPAT1, -3 or -4) were produced and assayed in the presence of 1 mM N-Ethylmaleimide (NEM) for 1 h or at 41° C. for 10 min.

MEST T580B = molecular target: T2, MEST T580B (Homo sapiens, UniProt Q5EB52); assay: Glycerol 3-phosphate acyl transferase activity, MEST T580B-recombinant Sf9 crude membranes; type: biochemical; conditions: 1 mM NEM for 1 h
T2 construct: T579B=amino acids 2-335 and T580B=amino acids 11-335; made in house; host or cells: Sf9 insect cells (baculovirus, pVL1392); crude total membranes
T2 sequence (Q5EB52 11-335): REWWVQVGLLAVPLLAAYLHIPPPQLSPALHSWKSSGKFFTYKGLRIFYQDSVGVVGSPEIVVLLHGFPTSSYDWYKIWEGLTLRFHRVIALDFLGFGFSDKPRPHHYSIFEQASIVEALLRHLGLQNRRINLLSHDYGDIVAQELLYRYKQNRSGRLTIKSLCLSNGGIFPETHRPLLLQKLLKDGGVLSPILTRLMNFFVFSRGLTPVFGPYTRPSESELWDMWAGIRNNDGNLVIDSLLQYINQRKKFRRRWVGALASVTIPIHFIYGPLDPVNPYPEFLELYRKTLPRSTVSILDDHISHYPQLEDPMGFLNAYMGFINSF
Description: as §1, §2, §5, §3
as §4, with “JA25I).” for “JA25I). The supernatant was transferred into ultracentrifugation tubes (Beckman #355618) and centrifugated (100000 g, 60 min, 4° C., Beckman Optima LE-80K). The supernatant was completely removed.”

[2] = 1 mM NEM for 1 h, 10 μg Protein/Test
[3] = 1 mM NEM for 1 h, 30 μg Protein/Test
[4] = inhibitor 0.3 μM, MEST T579B 10 μg/Test
[5] = inhibitor 1 μM, MEST T579B 10 μg/Test
[6] = inhibitor 3 μM, MEST T579B 10 μg/Test
[7] = inhibitor 10 μM, MEST T579B 10 μg/Test
[8] = inhibitor 30 μM, MEST T579B 10 μg/Test
[9] = inhibitor 100 μM, MEST T579B 10 μg/Test
[10] = inhibitor 200 μM, MEST T579B 10 μg/Test

Question: Which results are given for `CCN1C(=O)C=CC1=O` [NEM, N-Ethylmaleimide]?
Answer: % Inhibition ([1]; 10 μg Protein/Test): 95%; Activity (dpm/Test) ([1]; 10 μg Protein/Test): 6 dpm/Test; % Inhibition ([1]; 30 μg Protein/Test): 107%; Activity (dpm/Test) ([1]; 30 μg Protein/Test): −12 dpm/Test; Inhibition of MEST activity (in words) (MEST T579B; 1 mM NEM for 1 h): completely; Activity (dpm/Test) (MEST T579B; [2]): 49 dpm/Test; inhibition at 1000 µM (MEST T579B; [2]): 90%; Activity (dpm/Test) (MEST T579B; [3]): 53 dpm/Test; inhibition at 1000 µM (MEST T579B; [3]): 94%; Activity (dpm/Test) (MEST T580B; 10 μg Protein/Test): −11 dpm/Test; inhibition at 1000 µM (MEST T580B; 10 μg Protein/Test): 101%; Activity (dpm/Test) (MEST T580B; 30 μg Protein/Test): 31 dpm/Test; inhibition at 1000 µM (MEST T580B; 30 μg Protein/Test): 96%

Question: What does the source list for `O=C(O)CCCCCCCCCCCNC(=O)NC12CC3CC(CC(C3)C1)C2` [A003564556]?
Answer: Inhibition of MEST activity (in words) (MEST T579B; MEST T579B crude membranes): partially inhibited; Activity (dpm/Test) (MEST T579B; [4]): 905 dpm/Test; inhibition at 0.3 µM (MEST T579B; [4]): -6%; Activity (dpm/Test) (MEST T579B; [5]): 1011 dpm/Test; inhibition at 1 µM (MEST T579B; [5]): -19%; Activity (dpm/Test) (MEST T579B; [6]): 881 dpm/Test; inhibition at 3 µM (MEST T579B; [6]): -4%; Activity (dpm/Test) (MEST T579B; [7]): 845 dpm/Test; inhibition at 10 µM (MEST T579B; [7]): 1%; Activity (dpm/Test) (MEST T579B; [8]): 779 dpm/Test; inhibition at 30 µM (MEST T579B; [8]): 8%; Activity (dpm/Test) (MEST T579B; [9]): 557 dpm/Test; inhibition at 100 µM (MEST T579B; [9]): 34%; Activity (dpm/Test) (MEST T579B; [10]): 458 dpm/Test; inhibition at 200 µM (MEST T579B; [10]): 48%; IC50 (MEST T579B; partial inhibition of glycerol 3-phosphate acyl transferase activity): ~200 µM
